Source: US10537652B2, “Cyclic urea compounds as granzyme B inhibitors” (viDA Therapeutics Inc., priority 2014, dated 2020)

Biological target: T1, GzmB (Homo sapiens, UniProt P10144)
T1 construct: purchased Froelich Lab, Northshore University Health Systems Research Institute, Evanston, Ill., USA
Test: Inhibition of Fibronectin Cleavage by GzmB (Example D7)
Type: biochemical
Conditions: 20 nM granzyme B, 30° C.; for inhibition at 0.62 µM: inhibitor 0.62 uM, read-out: Percent Inhibition at Inhibitor Concentration 0.62 uM; for inhibition at 5.56 µM: inhibitor 5.56 uM, read-out: Percent Inhibition at Inhibitor Concentration 5.56 uM; for inhibition at 50 µM: inhibitor 50 uM, read-out: Percent Inhibition at Inhibitor Concentration 50 uM
Procedure: Black, 96 well high-binding assay plates (Griener Bio-one) were treated overnight at 4° C. with 40 uL of 8 ug/mL Hilyte Fluor 488 labeled Fibronectin (Cytoskeleton, Inc). After fibronectin coating, plates were washed 3 times in buffer (20 mM Tris-HCl, pH 7.4, 20 mM NaCl) then once with granzyme B assay buffer (50 mM HEPES, pH 7.5, 0.1% CHAPS). After washing, 50 uL of granzyme B assay buffer was added to each fibronectin-coated well. In a separate non-binding 96 well assay plate 5 uL of 20X inhibitor serial dilution stocks were added to 45 uL of 2.22x GzmB mix to establish inhibition (enzyme/inhibitor mixes were all prepared in granzyme B assay buffer and were incubated first at room temperature for 20 minutes, then at 30° C. for another 10 minutes). After incubation, 50 uL of this 2x enzyme/inhibitor mix was added to the corresponding coated well to initiate fibronectin cleavage (20 nM final granzyme B concentration, 8-point inhibitor dilution series starting at 50 uM). The assay was conducted at 30° C. in the TECAN plate reader (TECAN INFINITE® M1000 Pro), which was programmed to monitor the kinetic fluorescence polarization signal (filter set Ex/Em 470 nm/527 nm) with readings taken every minute, for 1 hour. Proteolytic activity was evaluated as the rate of fluorescence enhancement in the parallel emission over the linear range of the reaction. % Inhibition values were calculated from assay controls and the resulting data is shown in Table 6.

T1 sequence (P10144 21-247): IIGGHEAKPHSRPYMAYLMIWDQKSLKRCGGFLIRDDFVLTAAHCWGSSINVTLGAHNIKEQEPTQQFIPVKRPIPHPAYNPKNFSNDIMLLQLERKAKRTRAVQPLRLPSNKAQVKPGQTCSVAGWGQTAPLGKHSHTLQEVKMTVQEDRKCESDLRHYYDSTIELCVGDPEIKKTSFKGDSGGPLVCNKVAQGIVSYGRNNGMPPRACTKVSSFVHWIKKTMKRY

Structure (SMILES) | inhibition at 0.62 µM [%] | inhibition at 5.56 µM [%] | inhibition at 50 µM [%]
CC[C@H](C)[C@H](NC(=O)CCC(=O)O)C(=O)NCC(=O)N1C(=O)NC[C@H]1C(=O)NCc1nn[nH]n1 [Compound C1, 4-(((2S,3S)-1-((2-((S)-5-(((2H-tetrazol-5-yl)methyl)carbamoyl)-2-oxoimidazolidin-1-yl)-2-oxoethyl)amino)-3-methyl-1-oxopentan-2-yl)amino)-4-oxobutanoic acid] | 39 | 69 | 86
CC[C@H](C)[C@H](NC(=O)CCC(=O)O)C(=O)NCC(=O)N1C(=O)N(C2CCCCC2)C[C@H]1C(=O)NCc1nn[nH]n1 [Compound C2, 4-(((2S,3S)-1-((2-((S)-5-(((2H-TETRAZOL-5-YL)METHYL)CARBAMOYL)-3-CYCLOHEXYL-2-OXOIMIDAZOLIDIN-1-YL)-2-OXOETHYL)AMINO)-3-METHYL-1-OXOPENTAN-2-YL)AMINO)-4-OXOBUTANOIC ACID] | 75 | 91 | 96
